Assay results from article PMC7497679, “Structure-based design, synthesis, and evaluation of the biological activity of novel phosphoroorganic small molecule IAP antagonists” (Investigational New Drugs, 2020).
Where two headings read alike, the source gives them in different places.

Key:
XIAP BIR3 domain = target: T1, XIAP BIR3 domain (Homo sapiens, UniProt P98170); assay: Fluorescence polarization inhibition (competition) assay; format: binding; conditions: for inhibition at 50 µM: 0.5 h, antagonist 50 µM, inhibition of protein-probe interaction; for Ki / EC50: XIAP BIR3 50 nM, fluorescent probe 4 2 nM
T1 construct: fluorescent probe 4 and the XIAP BIR3 domain (Sino Biological, Beijing, China) were used for all measurements; purchased Sino Biological, Beijing, China
Experimental: The fluorescence polarization assay was performed at r.t. in Corning 384-well black, polystyrene flat bottom plates (Corning, NY, USA) on a Synergy H4 Hybrid Reader (BioTek, Bad Friedrichshall, Germany). For fluorescence polarization measurements, (milipolarization units, mP) 484/20 nm excitation and 528/20 nm emission filters were selected. Phosphate buffer (pH 7.5) supplemented with γ-globulin (100 µg/mL) and NaN3 (0.02% w/v), fluorescent probe 4 and the XIAP BIR3 domain (Sino Biological, Beijing, China) were used for all measurements. All experiments were performed in duplicate. The obtained fluorescence polarization assay data were analyzed with Prism 5.0 Software (GraphPad Software, San Diego, ca.).
After a 15 min incubation at r.t., fluorescent probe 4 (2 nM) was added. The values were measured 30 min after the moment the probe was added. The assay was performed in phosphate buffer with a final DMSO concentration of 1.4% (v/v). […] In order to evaluate the quality and precision of the performed screening assay, we determined the Z´ factor as described by Zhang et al.. The obtained fluorescence polarization values were used to determine the percent inhibition, which was plotted as a function of the protein concentration. The EC50 and Ki values were calculated with GraphPad software (log(agonist) vs. response (variable slope) model) in combination with the web tool developed by Nikolovska-Coleska et al..
Fluorescence polarization inhibition assay and data analysis for 41m and 42m compounds was performed as described in the Material and Methods section of the manuscript. Briefly, 50 nM solution of the BIR3 XIAP protein in polarization buffer was added into phosphoroorganic compound solution (from 50 μM to 0.0537 nM). After 15 min incubation at r.t. the fluorescent probe 4 (2 nM) was added.
The values were read after 30 minutes from the moment the probe was added. The obtained fluorescence polarization values were used to determine the percentage of inhibition which was plotted as a function of the protein concentration (Supplementary Figure S4).
(1 picture or pasted object on this page, not shown here)

A549 = assay: Antiproliferative activity, SRB method; format: cell-based, human; conditions: Homo sapiens, A549, 10 µM, 72 h, read-out: mean proliferation inhibition at highest concentration used, A549
From the text: (§1) MDA-MB-231 (human breast cancer), MCF10A (human, nontumorigenic mammary gland epithelial cells), A549 (human nonsmall-cell lung cancer), UMUC-3 (human bladder cancer) and LoVo (human colon cancer) cell lines were obtained from the American Type Culture Collection (ATCC; Rockville, Maryland, USA). The MCF-7 cell line (human breast cancer) was obtained from the European Collection of Cell Cultures (ECACC; Salisbury, UK). All cell lines were maintained at the Hirszfeld Institute of Immunology and Experimental Therapy (HIIET), Wrocław, Poland. MDA-MB-231 cells were cultured in RPMI1640 medium (Thermo Fisher Scientific, Warszawa, Poland) supplemented with 2 mM L-glutamine, 1 mM sodium pyruvate, and 10% fetal bovine serum (all from Sigma-Aldrich, Poznań, Poland). The MCF10A cell line was cultured in Ham’s F12 medium with glutamine (Corning) supplemented with 5% (v/v) fetal bovine serum (FBS), 5% (v/v) horse serum, 10 µg/mL insulin, 0.05 µg/mL cholera toxin, 0.5 µg/mL hydrocortisone, and 20 ng/mL hEGF (all from Sigma-Aldrich). A549 and LoVo cells were cultured in a 1:1 (v/v) mixture of RPMI1640 and Opti-MEM (both from HIIET) supplemented with 5% (v/v) FBS and 2 mM L-glutamine. The UMUC-3 cell line was cultured in high glucose DMEM (Thermo Fisher Scientific) supplemented with 10% FBS and 2 mM Lglutamine. The MCF-7 line was cultured in Eagle’s minimal essential medium (EMEM; Thermo Fisher Scientific) supplemented with 10% (v/v) FBS, 2 mM L-glutamine, 1% (v/v) nonessential amino acids, and 8 µg/mL insulin (all from Sigma-Aldrich). All culture media contained 100 µg/mL streptomycin (Sigma-Aldrich) and 100 U/mL penicillin (Polfa Tarchomin SA, Warszawa, Poland). The cells were grown at 37 °C in a humid atmosphere saturated with 5% CO2.
(§2) Antiproliferative activity was assessed in six cell lines utilizing the sulforhodamine B (SRB) method. Briefly, cells were seeded in 96-well plates (Sarstedt, Warszawa, Poland) at a density of 5 × 10^3 cells/well, and after overnight incubation, the cells were exposed to compounds at various concentrations. After 72 h, the plates were fixed with 50% (v/v) TCA (all from Sigma-Aldrich), washed with tap water, and the precipitated proteins were labeled with 0.1% (w/v) SRB solution in 1% (v/v) AcOH. Next, the plates were washed with 1% (v/v) AcOH, and the remaining SRB dye was solubilized with 10 mM unbuffered TRIS solution. The absorbance was measured using a Biotek Hybrid H4 reader (BioTek Instruments, VT, USA) at 540 nm. Crude results were analyzed using a previously described method, and the results are expressed as the IC50 (compound concentration that reduced cell growth by 50%) compared to the vehicletreated control (0.1% (v/v) DMSO). The samples were analyzed in triplicate, and each experiment was repeated at least three times.

MDA-MB-231 = assay: Antiproliferative activity, SRB method; format: cell-based, human; conditions: Homo sapiens, MDA-MB-231, 72 h, read-out: IC50 ± SD (n = 3) MDA-MB-231
From the text: as §1, §2

MCF-10A = assay: Antiproliferative activity, SRB method; format: cell-based, human; conditions: Homo sapiens, MCF-10A, 10 µM, 72 h, read-out: mean proliferation inhibition at highest concentration used, MCF-10A
From the text: as §1, §2

UMUC-3 = assay: Antiproliferative activity, SRB method; format: cell-based, human; conditions: Homo sapiens, UMUC3, 10 µM, 72 h, read-out: mean proliferation inhibition at highest concentration used, UMUC-3
From the text: as §1, §2

LoVo = assay: Antiproliferative activity, SRB method; format: cell-based, human; conditions: Homo sapiens, LoVo, 10 µM, 72 h, read-out: mean proliferation inhibition at highest concentration used, LoVo
From the text: as §1, §2

MCF-7 = assay: Antiproliferative activity, SRB method; format: cell-based, human; conditions: Homo sapiens, MCF7, 10 µM, 72 h, read-out: mean proliferation inhibition at highest concentration used, MCF-7
From the text: as §1, §2

T1 sequence (P98170 252-356 limits assumed): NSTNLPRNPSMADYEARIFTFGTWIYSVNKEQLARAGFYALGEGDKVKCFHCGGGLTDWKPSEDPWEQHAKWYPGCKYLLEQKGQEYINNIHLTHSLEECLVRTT

In the case of `CN[C@@H](C)C(=O)N[C@H](C(=O)N1CCC[C@H]1C(=O)NC(Cc1ccccc1)P(=O)(Oc1ccccc1)Oc1ccccc1)C1CCCCC1` (stereo partly drawn) [Compound 42, diphenyl (1-((S)-1-((S)-2-cyclohexyl-2-((S)-2-(methylamino)propanamido)acetyl)pyrrolidine-2-carboxamido)-2-phenylethyl)phosphonate], the inhibition at 50 µM (XIAP BIR3 domain) is reported as 100%, the Ki (XIAP BIR3 domain) is reported as 0.35 µM and the EC50 (XIAP BIR3 domain; read-out: EC50) is reported as 0.74 µM. For the same molecule, the EC50 (XIAP BIR3 domain; read-out: log EC50 (converted)) was 0.738 µM, the inhibition at 10 µM (A549) was 23% and the IC50 (MDA-MB-231) was 2.46 ± 0.38 µM. For the same molecule, the inhibition at 10 µM (MCF-10A) was 2%, the inhibition at 10 µM (UMUC-3) was 6% and the inhibition at 10 µM (LoVo) was 12%. It also gave an inhibition at 10 µM (MCF-7) of 16%.

`CN[C@@H](C)C(=O)N[C@H](C(=O)N1CCC[C@H]1C(=O)NC(Cc1ccccc1)P(=O)(Oc1ccccc1)Oc1ccccc1)C(C)C` (stereo partly drawn) [Compound 41, diphenyl (1-((S)-1-((S)-3-methyl-2-((S)-2-(methylamino)propanamido)butanoyl)pyrrolidine-2-carboxamido)-2-phenylethyl)phosphonate] was tested, and the inhibition at 50 µM (XIAP BIR3 domain) was 100%, the Ki (XIAP BIR3 domain) was 0.05 µM and the EC50 (XIAP BIR3 domain; read-out: EC50) was 0.13 µM. For the same molecule, the EC50 (XIAP BIR3 domain; read-out: log EC50 (converted)) was 0.131 µM, the inhibition at 10 µM (A549) was 10% and the IC50 (MDA-MB-231) was 2.58 ± 0.32 µM. For the same molecule, the inhibition at 10 µM (MCF-10A) was 2%, the inhibition at 10 µM (UMUC-3) was 5% and the inhibition at 10 µM (LoVo) was 11%. The inhibition at 10 µM (MCF-7) was 20%.
